# Test results from patent US11832638B2, “N-acyl derivatives of gamma amino-butyric acid and beta alanine as food flavouring compounds” (GIVAUDAN SA, priority 2012, dated 2023).
# How the values were obtained:
# [1] = Test on Heineken beer; conditions: 0.5 ppm
# Experimental: In Heineken beer (Market Product) C18:2-gaba was added at 0.5 ppm.
# Samples were evaluated by expert tasters. Tasters were asked to describe the samples focusing on authentic taste, alcohol impact, malt taste, hop taste, mouthfeel, fullness, salivation, sweetness, bitterness, richness, long lastingness and fattiness.
# [2] = Test in chocolate flavoured drink; conditions: 2 ppm, water, 4% sucrose, chocolate flavour 0.03%
# Text: Test in Chocolate Flavoured Drink:
# Base: Water, 4% sucrose, proprietary chocolate flavour at 0.03%
# [3] = Tasting in low fat salad dressing; conditions: 0.5 PPM in low fat salad dressing (13.6% fat)
# Experimental: The following formulations were prepared and tasted by trained panelists.
# low fat salad dressing (13.6% Fat)
# [4] = Chocolate milk with different fat content
# Experimental: Chocolate Milk With Different Fat Content
# In a chocolate milk 1.8% and 3% fat C18:2-gaba was added at 0.5 and 1 ppm.
# (§1) Samples were evaluated by expert tasters. Tasters were asked to describe the samples focusing on authentic taste, mouthfeel, fullness, salivation, sweetness, juiciness, richness, long lastingness and fattiness.
# [5] = Vanilla flavoured milk 3.0% fat; conditions: 2 ppm, 4% sugar, vanillin 10 ppm, vanilla extract 0.03%
# Experimental: Vanilla Flavoured Milk 3.0% Fat
# In a 3% fat milk drink, sweetened with 4% sucrose by weight, flavoured with Vaniline @ 10 ppm and a Vanilla extract @ 0.03% C18:2-gaba, was added at 0.5 or 2 ppm.
# as §1
# Base: Milk 3% fat, 4% sugar, vanillin 10 ppm, vanilla extract 0.03%
# [6] = Calve salad dressing low fat; conditions: 0.5 ppm
# Text: Calve Salad Dressing Low Fat:
# Base is Calve salad dressing (market product)
structure (smiles),measurement,setting,value
CCCCC/C=C\C/C=C\CCCCCCCC(=O)NCCCC(=O)O [C18:2-gaba],description by expert tasters,[1],"more hoppy, more bitter, more malt and stronger alcohol impact"
same,taste description,[2],"full, sweeter, more vanillic, milk chocolate is enhanced, very long lasting"
same,tasting result (trained panelists),[3],better mouthfeel that was impressively creamy
same,description by expert tasters,"[4]; 0.5 ppm, chocolate milk 1.8% fat","stronger cocoa note, more chocolate vs cocoa"
same,description by expert tasters,"[4]; 0.5 ppm, chocolate milk 3% fat","very creamy, enhanced cocoa note"
same,description by expert tasters,"[4]; 1 ppm, chocolate milk 1.8% fat","very creamy, chocolate, long-lasting creamy and chocolate taste"
same,description by expert tasters,"[4]; 1 ppm, chocolate milk 3% fat","very creamy, lasting, sweet, almost taste like chocolate ice cream"
same,description by expert tasters,[5],"beany, fatty, authentic, sweet"
same,taste description,[6],"much fuller, creamy, rich, less acidic"
